According to patent US7714134B2, “Compounds and use of tetrahydropyridothiophenes” (4SC AG, priority 2004, dated 2010):

Key:
[1] = tested on: RKO colon adenocarcinoma cells (RKOp27) arrested by expression of ectopic p27Kip1; test: Alamar Blue cell viability assay, cell cycle specific mode of action, RKO p27 induced (arrested by Ponasterone A-induced p27Kip1); format: cell-based; settings: Homo sapiens, RKOp27, 72 h, cells arrested by p27Kip1 induced with 10 μM Ponasterone A, 72 hours incubation
Procedure: To determine the cell cycle specific mode of action, subdlones of RKO colon adenocarcinoma cells (RKOp27 or RKOp21 as described by Schmidt et al. in Oncogene 19, 2423-2429; 2000) are seeded into 96 well flat bottom plates at a density of 16000 cells per well in a volume of 50 μl per well in DMEM growth medium with 10% FCS containing 10 μM Ponasterone A. 24 hours after seeding the 50 μl each of the compound dilutions in DMEM medium are added into each well of the 96 Well plate. Each compound dilution is tested as quadruplicates. Wells containing untreated control cells are filled with 50 μl DMEM medium containing 1% DMSO. The cells are then incubated with the substances for 72 hours at 37° C. in a humidified atmosphere containing 5% carbon dioxide. To determine the viability of the cells, 10 μl of an Alamar Blue solution (Biosource) are added and the fluorescence was measured at an extinction of 544 nm and an emission of 590 nm. For the calculation of the cell viability the emission value from untreated cells is set as 100% viability and the emission rates of treated cells are set in relation to the values of untreated cells. Viabilities are expressed as % values. Viability is compared of proliferating cells grown in the absence of the inducer Ponasterone A, versus viability of cells arrested by the expression of ectopic p27Kip1 induced by Ponasterone A. The data of this experimental setting are summarized in table A (2nd column).

[2] = tested on: RKO (RKOp27) human colon adenocarcinoma cells; test: Alamar Blue cell viability assay, anti-proliferative/cytotoxic activity, RKO p27 uninduced; format: cell-based; settings: RKOp27, 72 h, proliferating cells, absence of the inducer Ponasterone A, 72 hours incubation
Procedure: The anti-proliferative/cytotoxic activity of the compounds described herein, can be tested on subdlones of RKO (RKOp27) human colon adenocarcinoma cells (Schmidt et al., Oncogene 19, 2423-2429; 2000) using the Alamar Blue cell viability assay (described in O'Brien et al. Eur J Biochem 267, 5421-5426, 2000). The compounds are dissolved as 20 mM solutions in dimethylsulfoxide (DMSO) and subsequently diluted in semi-logarithmic steps. DMSO dilutions are further diluted 1:100 into Dulbecco's modified Eagle's medium (DMEM) containing 10% fetal calf serum to a final concentration twice as much as the final concentration in the test. RKO subclones are seeded into 96 well flat bottom plates at a density of 4000 cells per well in a volume of 50 µl per well. 24 hours after seeding the 50 μl each of the compound dilutions in DMEM medium are added into each well of the 96 Well plate. Each compound dilution is tested as quadruplicates. Wells containing untreated control cells are filled with 50 μl DMEM medium containing 1% DMSO. The cells are then incubated with the substances for 72 hours at 37° C. in a humidified atmosphere containing 5% carbon dioxide. To determine the viability of the cells, 10 μl of an Alamar Blue solution (Biosource) are added and the fluorescence is measured at an extinction of 544 nm and an emission of 590 nm. For the calculation of the cell viability the emission value from untreated cells is set as 100% viability and the emission rates of treated cells are set in relation to the values of untreated cells. Viabilities are expressed as % values.
The corresponding IC50 values of the compounds for anti-proliferative/cytotoxic activity are determined from the concentration-effect curves.
Representative IC50 values for anti-proliferation/cytotoxicity determined for the compounds mentioned and numbered as Examples in the examples above follow from the following table A (1st column), in which the numbers of the compound correspond to the numbers of the examples. Any or all of the compounds according to the present invention which are listed in the Table A, as well as their salts, are to be mentioned as a particular interesting subject of the present invention.

Row | Compound | IC50 [1] [µM] | IC50 [2] [µM]
1 | N#Cc1c(NC(=O)c2ccccc2)sc2c1CCN(C(=O)OCCN1CCOCC1)C2 [Compound 67, 3-Cyano-2-[(1-phenyl-methanoyl)-amino]4,7-dihydro-5H-thieno[2,3-c]pyridine-6-carboxylic acid 2-morpholin-4-yl-ethyl ester] | > 60 | ≤ 3
2 | N#Cc1c(NC(=O)c2ccccc2)sc2c1CCN(C(=O)OCCc1ccccn1)C2 [Compound 68, 3-Cyano-2-[(1-phenyl-methanoyl)-amino]-4,7-dihydro-5H-thieno[2,3-c]pyridine-6-carboxylic acid 2-pyridin-2-yl-ethyl ester] | > 60 | ≤ 3
3 | N#Cc1c(NC(=O)c2ccccc2)sc2c1CCN(C(=O)OCCCc1ccncc1)C2 [Compound 69, 3-Cyano-2-[(1-phenyl-methanoyl)-amino]-4,7-dihydro-5H-thieno[2,3-c]pyridine-6-carboxylic acid 3-pyridin-4-yl-propyl ester] | > 60 | ≤ 3
4 | N#Cc1c(NC(=O)c2ccccc2)sc2c1CCN(C(=O)OCCCN1CCOCC1)C2 [Compound 70, 3-Cyano-2-[(1-phenyl-methanoyl)-amino]-4,7-dihydro-5H-thieno[2,3-c]pyridine-6-carboxylic acid 3-morpholin-4-yl-propyl ester] | > 60 | ≤ 3
5 | N#Cc1c(NC(=O)c2ccccc2)sc2c1CCN(C(=O)OCCCc1ccccn1)C2 [Compound 71, 3-Cyano-2-[(1-phenyl-methanoyl)-amino]-4,7-dihydro-5H-thieno[2,3-c]pyridine-6-carboxylic acid 3-pyridin-2-yl-propyl ester] | > 60 | ≤ 3
6 | N#Cc1c(NC(=O)c2ccccc2)sc2c1CCN(C(=O)OCCCc1cccnc1)C2 [Compound 72, 3-Cyano-2-[(1-phenyl-methanoyl)-amino]-4,7-dihydro-5H-thieno[2,3-c]pyridine-6-carboxylic acid 3-pyridin3-yl-propyl ester] | > 60 | ≤ 3
7 | N#Cc1c(NC(=O)c2ccccc2)sc2c1CCN(C(=O)OCCc1ccncc1)C2 [Compound 73, 3-Cyano-2-[(1-phenyl-methanoyl)-amino]4,7-dihydro-5H-thieno[2,3-c]pyridine-6-carboxylic acid 2-pyridin4-yl-ethyl ester] | > 60 | ≤ 3
8 | CC1(C)OCC(COC(=O)N2CCc3c(sc(NC(=O)c4ccccc4)c3C#N)C2)O1 (stereo not drawn) [Compound 74, 3-Cyano-2-[(1-phenyl-methanoyl)-amino]-4,7-dihydro-5H-thieno[2,3-c]pyridine-6-carboxylic acid 2,2-dimethyl-[1,3]dioxolan-4-ylmethyl ester] | > 60 | ≤ 3
9 | COCCOCCOC(=O)N1CCc2c(sc(NC(=O)c3ccccc3)c2C#N)C1 [Compound 75, 3-Cyano-2-[(1-phenyl-methanoyl)amino]-4,7-dihydro-5H-thieno[2,3-c]pyridine-6-carboxylic acid 2-(2-methoxy-ethoxy)-ethyl ester] | > 60 | ≤ 3
10 | N#Cc1c(NC(=O)c2ccccc2)sc2c1CCN(C(=O)OCC(O)CO)C2 (stereo not drawn) [Compound 76, 3-Cyano-2-[(1-phenyl-methanoyl)-amino]-4,7-dihydro-5H-thieno[2,3-c]pyridine-6-carboxylic acid 2,3-dihydroxy-propyl ester] | > 60 | ≤ 3
11 | N#Cc1c(NC(=O)c2ccccc2)sc2c1CCN(S(=O)(=O)c1ccc(N3CCOCC3)nc1)C2 [Compound 77, N-[3-Cyano-6-(6-morpholin-4-yl-pyridine-3-sulfonyl)-4,5,6,7-tetrahydro-thieno[2,3-c]pyridin-2-yl]-benzamide] | > 60 | ≤ 3
12 | COc1ccc(S(=O)(=O)N2CCc3c(sc(NC(=O)c4ccccc4)c3C#N)C2)cc1 [Compound 79, N-[3-Cyano-6-(4-methoxy-benzenesulfonyl)-4,5,6,7-tetrahydro-thieno[2,3-c]pyridin-2-yl]-benzamide] | > 60 | ≤ 3
13 | N#Cc1c(NC(=O)c2ccccc2)sc2c1CCN(C(=O)NCCc1ccncc1)C2 [Compound 80, 3-Cyano-2-[(1-phenyl-methanoyl)-amino]-4,7-dihydro-5H-thieno[2,3-c]pyridine-6-carboxylic acid (2-pyridin-4-yl-ethyl)-amide] | > 60 | ≤ 3
14 | N#Cc1c(NC(=O)c2ccccc2)sc2c1CCN(C(=O)NCCc1c[nH]c3ccccc13)C2 [Compound 81, 3-Cyano-2-[(1-phenyl-methanoyl)-amino]-4,7-dihydro-5H-thieno[2,3-c]pyridine-6-carboxylic acid [2-(1H-indol-3-yl)-ethyl]-amide] | > 60 | ≤ 3
15 | N#Cc1c(NC(=O)c2ccccc2)sc2c1CCN(C(=O)NCCc1ccc([N+](=O)[O-])cc1)C2 [Compound 82, 3-Cyano-2-[(1-phenyl-methanoyl)amino]-4,7-dihydro-5H-thieno[2,3-c]pyridine-6-carboxylic acid [2-(4-nitro-phenyl)-ethyl]-amide] | > 60 | ≤ 3
16 | CN(C)C(=O)CCC(=O)N1CCc2c(sc(NC(=O)c3ccccc3)c2C#N)C1 [Compound 83, N-[3-Cyano-6-(3-dimethylcarbamoyl-propanoyl)-4,5,6,7-tetrahydro-thieno[2,3-c]pyridin-2-yl]-benzamide] | > 100 | ≤ 3
17 | CC(=O)OCC(=O)N1CCc2c(sc(NC(=O)c3ccccc3)c2C#N)C1 [Compound 84, Acetic acid 2-3-cyano-2-[(1-phenyl-methanoyl)-amino]-4,7-dihydro-5H-thieno[2,3-c]pyridin-6-yl-2-oxo-ethyl ester] | > 100 | ≤ 3
18 | N#Cc1c(NC(=O)c2ccccc2)sc2c1CCN(C(=O)CCCn1ccnc1)C2 [Compound 85, N-[3-Cyano-6-(4-imidazol-1-yl-butanoyl)-4,5,6,7-tetrahydro-thieno[2,3-c]pyridin-2-yl]-benzamide] | > 100 | ≤ 3
19 | CC(=O)OCCCC(=O)N1CCc2c(sc(NC(=O)c3ccccc3)c2C#N)C1 [Compound 86, Acetic acid 4-{3-cyano-2-[(1-phenyl-methanoyl)-amino]4,7-dihydro-5H-thieno[2,3-c]pyridin-6-yl}-4-oxo-butyl ester] | > 100 | ≤ 3
20 | N#Cc1c(NC(=O)c2ccccc2)sc2c1CCN(C(=O)CO)C2 [Compound 87, N-[3-Cyano-6-(2-hydroxy-ethanoyl)-4,5,6,7-tetrahydro-thieno[2,3-c]pyridin-2-yl]-benzamide] | > 100 | ≤ 3
21 | N#Cc1c(NC(=O)c2ccccc2)sc2c1CCN(C(=O)CCCO)C2 [Compound 88, N-[3-Cyano-6-(4-hydroxy-butanoyl)-4,5,6,7-tetrahydro-thieno[2,3-c]pyridin-2-yl]-benzamide] | > 100 | ≤ 3
22 | COC(=O)COC(=O)N1CCc2c(sc(NC(=O)c3ccccc3)c2C#N)C1 [Compound 93, 3-Cyano-2-[(1-phenyl-methanoyl)-amino]-4,7-dihydro-5H-thieno[2,3-c]pyridine-6-carboxylic acid methoxycarbonylmethyl ester] | > 100 | ≤ 3
23 | CC(=O)NCCOC(=O)N1CCc2c(sc(NC(=O)c3ccccc3)c2C#N)C1 [Compound 94, 3-Cyano-2-[(1-phenyl-methanoyl)-amino]4,7-dihydro-5H-thieno[2,3-c]pyridine-6-carboxylic acid 2-acetylamino-ethyl ester] | > 100 | ≤ 3
24 | N#Cc1c(NC(=O)c2ccccc2)sc2c1CCN(C(=O)OCCn1ccnc1)C2 [Compound 95] | > 100 | ≤ 3
